According to ChEMBL document CHEMBL1201862, “PubChem BioAssay data set” (2004):
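Grown in 96-well plates, cells were treated for 48 hours with each compound at five concentrations. Insufficient inhibition: endpoint recorded as highest concentration tested. At the GI50, growth is halved.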 Active and inactive are the calls of the source. No stated cut-off is given here; in the data, active = GI50 up to about 1.1 µM and inactive = higher.

Experiments:
Experiment in all cases: NCI tumour cell line growth inhibition, 48 h
MCF7 = tested on: MCF7
NCI/ADR-RES = tested on: NCI/ADR-RES
LOX IMVI = tested on: LOX IMVI
A498 = tested on: A498
XF498 = tested on: XF498
DLD-1 = tested on: DLD-1
CAKI-1 = tested on: CAKI-1
RPMI-8226 = tested on: RPMI-8226
SK-OV-3 = tested on: SK-OV-3
SNB-78 = tested on: SNB-78
CCRF-CEM = tested on: CCRF-CEM
DMS-114 = tested on: DMS-114
IGROV-1 = tested on: IGROV-1
UACC-257 = tested on: UACC-257
DMS-273 = tested on: DMS-273
Malme-3M = tested on: Malme-3M
DU-145 = tested on: DU-145
HOP-18 = tested on: HOP-18
MDA-MB-435 = tested on: MDA-MB-435
Hs-578T = tested on: Hs-578T

Row | Compound | GI50 (MCF7) | GI50 (NCI/ADR-RES) | GI50 (LOX IMVI) | GI50 (A498) | GI50 (XF498) | GI50 (DLD-1) | GI50 (CAKI-1) | GI50 (RPMI-8226) | GI50 (SK-OV-3) | GI50 (SNB-78) | GI50 (CCRF-CEM) | GI50 (DMS-114) | GI50 (IGROV-1) | GI50 (UACC-257) | GI50 (DMS-273) | GI50 (Malme-3M) | GI50 (DU-145) | GI50 (HOP-18) | GI50 (MDA-MB-435) | GI50 (Hs-578T)
1 | CNC(=O)C(C)C1CCC2(C)C=CC(=O)C(C)=C2C1O (configuration not stated) | > 100 µM (inactive) | > 47 µM (inactive) | > 100 µM (inactive) | > 100 µM (inactive) | > 100 µM (inactive) | > 100 µM (inactive) | 28.5 µM (inactive) | > 100 µM (inactive) | > 100 µM (inactive) | > 100 µM (inactive) | > 100 µM (inactive) | > 100 µM (inactive) | > 55.2 µM (inactive) | > 100 µM (inactive) | > 37.9 µM (inactive) |  |  |  |  | 
2 | CC1=NN(C(=O)c2ccccc2O)C(=O)/C1=C/c1ccc(O)cc1 | 0.382 µM (active) | 0.519 µM (active) | 0.468 µM (active) | 0.134 µM (active) |  | 0.151 µM (active) | 0.662 µM (active) | 0.312 µM (active) | 0.26 µM (active) | > 100 µM (inactive) | 1.47 µM (inactive) | 0.348 µM (active) | 0.14 µM (active) | 0.658 µM (active) |  | 0.431 µM (active) | 0.492 µM (active) |  |  | 
3 | COC(C(O)c1ccc2c(c1)OCO2)P(=O)(c1ccccc1)c1ccccc1 (configuration not stated) |  |  |  | 75.2 µM (inactive) | > 100 µM (inactive) | 88.7 µM (inactive) | 33.6 µM (inactive) |  | > 10 µM (inactive) | > 100 µM (inactive) | > 100 µM (inactive) | 77.3 µM (inactive) | > 100 µM (inactive) | > 100 µM (inactive) | > 100 µM (inactive) | 16 µM (inactive) |  |  |  | 
4 | COc1ccc(/C=C(\C2=NC(=O)CS2)c2nc3ccccc3[nH]2)cc1 |  |  |  | 75.9 µM (inactive) | 14.5 µM (inactive) | > 100 µM (inactive) | > 100 µM (inactive) | > 100 µM (inactive) | 15.8 µM (inactive) | 21.5 µM (inactive) | 39.4 µM (inactive) | 19.5 µM (inactive) | 52.1 µM (inactive) | 78 µM (inactive) | > 100 µM (inactive) | 69.3 µM (inactive) |  |  |  | 
5 | O=C1NC2CCCCCC2C12CCCCC2 (configuration not stated) |  |  | > 100 µM (inactive) | > 100 µM (inactive) | > 100 µM (inactive) | > 100 µM (inactive) |  |  | > 100 µM (inactive) | > 100 µM (inactive) | > 100 µM (inactive) | > 100 µM (inactive) | > 100 µM (inactive) | > 100 µM (inactive) |  | > 100 µM (inactive) |  |  |  | 
6 | CCOC(=O)C1CCn2c(nc3c(=O)n(C)c(=O)n(C)c32)S1 (configuration not stated) |  |  | > 100 µM (inactive) |  |  | > 100 µM (inactive) | > 100 µM (inactive) | > 100 µM (inactive) | > 100 µM (inactive) | > 100 µM (inactive) | > 100 µM (inactive) |  | > 100 µM (inactive) | > 100 µM (inactive) | > 100 µM (inactive) | > 100 µM (inactive) |  | > 100 µM (inactive) |  | 
7 | c1ccc(N/N=C2\NN=C(c3ccccc3)CS2)cc1 |  |  | 4.39 µM (inactive) | 10.8 µM (inactive) |  |  | 2.55 µM (inactive) |  | 14.9 µM (inactive) | 5.46 µM (inactive) | 3.17 µM (inactive) |  | 15 µM (inactive) | 16 µM (inactive) |  |  |  |  |  | 
8 | COC(=O)N1C=Cc2c(c(C)c3c([nH]c4ccccc43)c2C)C1C (configuration not stated) |  |  | 16.4 µM (inactive) | 14.1 µM (inactive) | 17.7 µM (inactive) | 14.8 µM (inactive) | 18.1 µM (inactive) | 7.62 µM (inactive) | 27.4 µM (inactive) |  | 14.8 µM (inactive) | 19.4 µM (inactive) | 25.2 µM (inactive) | 17.3 µM (inactive) | 18 µM (inactive) | 18.1 µM (inactive) |  |  |  | 
9 | CC1C(/C=C/c2ccoc2)ON2CCCC12 (configuration not stated) |  |  | > 100 µM (inactive) |  |  | > 100 µM (inactive) | > 100 µM (inactive) |  |  | > 100 µM (inactive) |  |  |  | > 100 µM (inactive) | > 100 µM (inactive) | 54.2 µM (inactive) |  | > 100 µM (inactive) |  | 
10 | COc1cc2c(cc1OC)-c1c3c(cc4c1[C@@H](C2)N(C)CC4)OCO3 | 1.94 µM (inactive) | 5.62 µM (inactive) | 3.78 µM (inactive) | 4.69 µM (inactive) |  | 6 µM (inactive) | 6.01 µM (inactive) | 5.74 µM (inactive) | 12.1 µM (inactive) | 11.6 µM (inactive) | 3.96 µM (inactive) | 8.43 µM (inactive) | 9.62 µM (inactive) | 11.6 µM (inactive) | 3.52 µM (inactive) | 9.14 µM (inactive) |  | 18.2 µM (inactive) |  | 
11 | Cc1ccc(S(=O)(=O)N/N=C(/c2nc3ccc([N+](=O)[O-])cc3nc2O)C(O)c2ccc(C(O)/C(=N\NS(=O)(=O)c3ccc(C)cc3)c3nc4ccc([N+](=O)[O-])cc4nc3O)cc2)cc1 (configuration not stated) |  |  | 20.3 µM (inactive) | 59 µM (inactive) | > 100 µM (inactive) | 33.3 µM (inactive) |  | 26.1 µM (inactive) | > 100 µM (inactive) | > 100 µM (inactive) | 13.6 µM (inactive) | 5.98 µM (inactive) | > 100 µM (inactive) | 14.8 µM (inactive) | 38.4 µM (inactive) | > 100 µM (inactive) |  |  |  | 
12 | O=C1c2ccccc2C(=O)c2c1sc1nc3ccccc3n21 | 1.86 µM (inactive) | 1.77 µM (inactive) | 0.893 µM (active) | 10.7 µM (inactive) |  |  | 1.99 µM (inactive) | 1.33 µM (inactive) | 6.87 µM (inactive) |  | 1.94 µM (inactive) |  | 2.44 µM (inactive) | 1.88 µM (inactive) |  | 0.439 µM (active) | 1.75 µM (inactive) |  | 2.11 µM (inactive) | 0.0239 µM (active)
13 | CN(C)CCNC(=O)c1cccc2c1nc(-c1cccnc1)c1ccccc12 |  |  | 2.15 µM (inactive) | 1.61 µM (inactive) |  | 4.1 µM (inactive) | 2.45 µM (inactive) |  | 10 µM (inactive) | 8.18 µM (inactive) | 4.29 µM (inactive) | 4.91 µM (inactive) | 1.73 µM (inactive) | 3.89 µM (inactive) | 3.02 µM (inactive) |  |  | 21.6 µM (inactive) |  | 
14 | CCOC(=O)C(NC(=O)c1cccc(Cl)c1)(Nc1ccc(S(=O)(=O)Nc2cc(C)on2)cc1)C(F)(F)F (configuration not stated) | > 100 µM (inactive) | > 100 µM (inactive) | > 100 µM (inactive) | > 100 µM (inactive) |  |  | > 100 µM (inactive) | > 100 µM (inactive) | > 100 µM (inactive) |  | > 100 µM (inactive) |  | > 100 µM (inactive) | > 100 µM (inactive) |  | > 100 µM (inactive) | > 100 µM (inactive) |  | > 100 µM (inactive) | > 100 µM (inactive)
15 | COC(=O)c1s/c(=N\C(=S)N(C)C)n(-c2ccccc2)c1C(=O)OC |  |  | > 100 µM (inactive) | > 100 µM (inactive) |  |  | > 100 µM (inactive) | 73.5 µM (inactive) | > 100 µM (inactive) | > 100 µM (inactive) |  | 70 µM (inactive) | > 100 µM (inactive) | > 100 µM (inactive) | > 100 µM (inactive) | > 100 µM (inactive) |  |  |  | 
